Where no end group is shown, it is not given here. [ ]: non-standard residue; d: D form. Hyp = O=C(O)[C@@H]1C[C@@H](O)CN1
Legend:
[1] = tested on: Arabidopsis Col-0 seedlings (primary root); assay: Root growth assay, wild type (Col-0); assay type: in vivo, Arabidopsis thaliana; conditions: 50 nM peptide, 9-day-old seedlings, primary root length, n ≥ 12
Protocol: Plant tissue culture, plant transformation, and common molecular biology procedures such as genomic DNA isolation, genotyping, sequencing, and peptide or inhibitor treatments were performed according to standard procedures as previously described 9, 19, 44, 65.
All mutant and transgenic lines were in the Arabidopsis Columbia‐0 (Col‐0) background. The following previously described mutant alleles were used throughout: brx‐2, bam3‐2, brx‐2 bam3, clv2‐1, serk1‐1 and serk1‐3, serk2‐1, serk3‐1, serk4‐1, serk5‐1 9, 47, 59, 66, 67, 68. The crn loss‐of‐function mutant allele (crn‐10) carries a single nucleotide insertion in front of the 7th codon, which leads to a frameshift and three subsequent premature stop codons after amino acid 10 52.

[2] = molecular target: T1, BAM3 extracellular (LRR) domain (30–651) (Arabidopsis thaliana, UniProt O65440); assay: biochemical; assay type: binding
T1 construct: azurocidin signal peptide (N); made in house; host or cells: Trichoplusia ni Tnao38 insect cells (baculovirus, secreted)
Protocol: Isothermal titration calorimetry assays were run on a Nano ITC (1 ml standard cell; 250 μl syringe; TA Instruments) at 25°C in 20 mM sodium citrate pH 5 and 150 mM NaCl for all ITCs with BAM3 and 10 mM Bis–Tris pH 6 and 100 mM NaCl for the ITC with PXY. […] For each experiment, 10 μl was repetitively injected into the cell in 150 s time intervals. The measured heat rates for the BAM3‐ECD vs. CLE45, BAM3^QYY vs. CLE45, BAM3‐ECD vs. Y‐CLE45, BAM3‐ECD vs. CLV3, BAM3‐ECD vs. Y‐CLV3, and PXY‐ECD vs. CLE41/44 were corrected by subtracting the heat rates measured for injecting CLE45, Y‐CLE45, CLV3, Y‐CLV3, or CLE41/44 into the ITC buffer, respectively. The data for the BAM3‐ECD + CLE45 vs. SERK1‐ECD measurement was corrected by subtracting heat rates acquired by injecting SERK1‐ECD into a cell containing CLE45. Data analyses and modeling were carried out using the software supplied by the manufacturer (NanoAnalyze, version 3.5).

[3] = molecular target: T2, BAM3 extracellular domain (BAM3-ECD) (Arabidopsis thaliana, UniProt O65440 30-651); assay: ITC; peptide titrated (10 μl injections, 150 s intervals) into the BAM3 ectodomain in the cell; Nano ITC, 25°C, 20 mM sodium citrate pH 5, 150 mM NaCl; conditions: both partners purified
T2 construct: Cloned in a modified pFastBac1 with an N-terminal azurocidin signal peptide for secretion; MALDI-TOF mass 94,586 Da; also called BAM3 LRR domain; BAM3 ectodomain; source: Trichoplusia ni Tnao38 cells, secreted, purified (Ni2+, StrepII, size-exclusion chromatography)
T2 sequence (looked up): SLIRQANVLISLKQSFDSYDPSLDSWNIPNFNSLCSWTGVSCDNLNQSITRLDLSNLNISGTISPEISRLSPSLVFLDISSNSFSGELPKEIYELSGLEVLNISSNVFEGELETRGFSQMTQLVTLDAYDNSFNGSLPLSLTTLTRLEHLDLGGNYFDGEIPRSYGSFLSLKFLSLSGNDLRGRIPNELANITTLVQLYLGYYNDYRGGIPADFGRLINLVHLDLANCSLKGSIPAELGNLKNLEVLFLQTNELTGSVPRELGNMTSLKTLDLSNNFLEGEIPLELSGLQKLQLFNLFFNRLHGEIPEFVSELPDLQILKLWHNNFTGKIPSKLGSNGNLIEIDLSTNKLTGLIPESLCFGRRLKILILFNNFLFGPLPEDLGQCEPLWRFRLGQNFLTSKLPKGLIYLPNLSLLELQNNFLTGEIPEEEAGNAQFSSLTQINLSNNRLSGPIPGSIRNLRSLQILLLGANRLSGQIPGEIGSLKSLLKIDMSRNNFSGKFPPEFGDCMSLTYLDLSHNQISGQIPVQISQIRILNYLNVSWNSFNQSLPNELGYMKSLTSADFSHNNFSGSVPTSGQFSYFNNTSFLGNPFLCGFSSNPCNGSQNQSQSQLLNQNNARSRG

[4] = molecular target: T3, BAM3 extracellular domain (BAM3-ECD) (Arabidopsis thaliana, UniProt O65440 30-651); assay: ITC
T3 chain: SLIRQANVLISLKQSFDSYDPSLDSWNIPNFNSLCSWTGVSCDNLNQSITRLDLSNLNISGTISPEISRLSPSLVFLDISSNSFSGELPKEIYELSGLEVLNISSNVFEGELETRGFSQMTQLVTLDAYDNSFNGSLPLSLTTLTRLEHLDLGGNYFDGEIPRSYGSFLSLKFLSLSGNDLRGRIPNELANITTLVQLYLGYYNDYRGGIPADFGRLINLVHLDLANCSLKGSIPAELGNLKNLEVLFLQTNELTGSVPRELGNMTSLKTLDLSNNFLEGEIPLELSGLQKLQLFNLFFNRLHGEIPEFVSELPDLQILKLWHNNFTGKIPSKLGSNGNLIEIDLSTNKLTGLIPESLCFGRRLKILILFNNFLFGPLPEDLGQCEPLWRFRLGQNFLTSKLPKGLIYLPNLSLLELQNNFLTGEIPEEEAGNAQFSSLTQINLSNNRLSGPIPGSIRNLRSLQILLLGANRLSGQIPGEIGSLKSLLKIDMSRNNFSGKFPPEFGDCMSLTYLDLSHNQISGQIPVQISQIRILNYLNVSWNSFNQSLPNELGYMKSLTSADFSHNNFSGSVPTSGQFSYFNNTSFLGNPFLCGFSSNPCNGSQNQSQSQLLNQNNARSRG

[5] = molecular target: T4, PXY extracellular domain (PXY-ECD) (Arabidopsis thaliana, UniProt Q9FII5 30-647); assay: ITC
T4 chain: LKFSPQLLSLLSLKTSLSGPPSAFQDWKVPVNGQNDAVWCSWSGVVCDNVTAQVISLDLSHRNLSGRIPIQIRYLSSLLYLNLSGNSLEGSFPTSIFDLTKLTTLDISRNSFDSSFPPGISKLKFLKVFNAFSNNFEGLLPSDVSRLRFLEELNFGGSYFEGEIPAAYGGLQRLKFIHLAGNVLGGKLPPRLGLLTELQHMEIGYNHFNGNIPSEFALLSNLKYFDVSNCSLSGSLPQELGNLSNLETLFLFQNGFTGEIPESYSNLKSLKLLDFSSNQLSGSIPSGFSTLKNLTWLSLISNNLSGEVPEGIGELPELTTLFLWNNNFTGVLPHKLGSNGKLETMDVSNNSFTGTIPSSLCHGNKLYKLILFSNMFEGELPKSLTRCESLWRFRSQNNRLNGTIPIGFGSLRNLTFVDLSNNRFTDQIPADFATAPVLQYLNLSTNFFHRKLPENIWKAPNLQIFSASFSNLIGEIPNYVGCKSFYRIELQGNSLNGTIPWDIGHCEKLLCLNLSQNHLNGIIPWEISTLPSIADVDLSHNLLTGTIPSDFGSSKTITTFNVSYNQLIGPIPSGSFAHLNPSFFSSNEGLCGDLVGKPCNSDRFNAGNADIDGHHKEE

[6] = molecular target: T5, BAM3^QYY extracellular domain (BAM3^QYY-ECD) (Arabidopsis thaliana, UniProt O65440 30-651, Q226A | Y228A | Y231A); assay: ITC; peptide titrated (10 μl injections, 150 s intervals) into the BAM3 ectodomain in the cell; Nano ITC, 25°C, 20 mM sodium citrate pH 5, 150 mM NaCl; conditions: both partners purified
T5 construct: Same construct as m1 (azurocidin signal peptide for secretion) with three point mutations; also called mutant BAM3^QYY; source: Trichoplusia ni Tnao38 cells, secreted, purified (Ni2+, StrepII, size-exclusion chromatography)
T5 sequence (looked up): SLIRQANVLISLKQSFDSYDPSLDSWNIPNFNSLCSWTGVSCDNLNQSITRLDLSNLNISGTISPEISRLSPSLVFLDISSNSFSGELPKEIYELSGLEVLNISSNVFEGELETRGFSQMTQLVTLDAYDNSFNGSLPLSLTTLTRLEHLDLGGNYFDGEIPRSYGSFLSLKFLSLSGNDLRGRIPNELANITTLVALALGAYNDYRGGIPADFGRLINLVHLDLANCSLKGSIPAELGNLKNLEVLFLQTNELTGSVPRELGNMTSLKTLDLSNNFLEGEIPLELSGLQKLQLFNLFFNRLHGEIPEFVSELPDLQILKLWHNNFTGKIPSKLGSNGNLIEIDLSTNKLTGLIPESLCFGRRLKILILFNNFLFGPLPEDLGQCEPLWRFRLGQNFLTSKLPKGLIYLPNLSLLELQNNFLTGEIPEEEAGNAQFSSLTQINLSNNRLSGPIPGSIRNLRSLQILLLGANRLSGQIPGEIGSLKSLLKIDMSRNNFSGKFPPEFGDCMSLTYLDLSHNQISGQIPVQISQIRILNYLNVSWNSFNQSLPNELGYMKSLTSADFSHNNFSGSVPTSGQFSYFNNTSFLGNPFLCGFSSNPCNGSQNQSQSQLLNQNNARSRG

[7] = molecular target: T6, BAM3^QYY extracellular domain (BAM3^QYY-ECD) (Arabidopsis thaliana, UniProt O65440 30-651, Q226A | Y228A | Y231A); assay: ITC
T6 sequence: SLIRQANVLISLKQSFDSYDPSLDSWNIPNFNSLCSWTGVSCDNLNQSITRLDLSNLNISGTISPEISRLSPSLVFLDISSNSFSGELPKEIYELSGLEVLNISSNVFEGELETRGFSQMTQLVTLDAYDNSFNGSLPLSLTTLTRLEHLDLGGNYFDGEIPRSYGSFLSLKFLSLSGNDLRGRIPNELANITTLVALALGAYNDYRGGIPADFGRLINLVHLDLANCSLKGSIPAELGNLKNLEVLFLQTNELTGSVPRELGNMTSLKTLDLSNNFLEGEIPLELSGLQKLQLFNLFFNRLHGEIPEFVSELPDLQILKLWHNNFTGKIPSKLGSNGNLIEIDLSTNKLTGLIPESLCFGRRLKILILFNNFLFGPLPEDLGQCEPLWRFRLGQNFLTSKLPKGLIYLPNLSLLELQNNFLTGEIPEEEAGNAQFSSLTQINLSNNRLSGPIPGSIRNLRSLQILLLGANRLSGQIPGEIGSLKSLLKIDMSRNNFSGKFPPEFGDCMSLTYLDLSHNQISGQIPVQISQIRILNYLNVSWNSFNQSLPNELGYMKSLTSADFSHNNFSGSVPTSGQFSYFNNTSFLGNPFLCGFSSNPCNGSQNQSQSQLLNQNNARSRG

RQIPTGPDPLHN [CLE18, CLE18: …]
impact on root growth [1]: significant, reproducible impact on root growth

RQVPTGSDPLHH [CLE40, CLE40: …]
impact on root growth [1]: significant, reproducible impact on root growth

RRVPTGPNPLHH [CLE8, CLE8: …]
impact on root growth [1]: significant, reproducible impact on root growth

RRVRRGSDPIHN [CLE45]
Kd [2]: 116 ± 36 nM

RSIPTGPNPLHN [CLE21, CLE21: …]
impact on root growth [1]: significant, reproducible impact on root growth

RTVPSGPDPLHH [CLV3, CLV3: …]
N (stoichiometry) ([2]; ITC, 25°C, 20 mM sodium citrate pH 5, 150 mM NaCl, ± fitting errors (95% confidence interval), n.d.: not detectable): 0.978 +/- 0.23 | reduction in binding affinity of CLV3 vs. CLE45 (fold) ([2]; ITC, Fig EV1C vs. CLE45): 70 fold | impact on root growth [1]: significant, reproducible impact on root growth

RVVPSGPNPLHH [CLE11, CLE11: …]
impact on root growth [1]: significant, reproducible impact on root growth

B1: CLV3 peptide (ITC) (peptide)
peptide: RTV[Hyp]SG[Hyp]DPLHHH
notes: CLAVATA3 (CLV3) mature CLE peptide of Arabidopsis, 13 residues as printed for the ITC; the ITC peptide is printed with three C-terminal histidines; source: synthetic peptide (Peptide Specialty Laboratories, Heidelberg)
Kd [3]: ~10 µM | Kd [4]: 8.62 µM

B2: CLE41/44 peptide (ITC, unmodified as printed) (peptide)
peptide: HEVPSGPNPISN
notes: CLE41/44 (TDIF), mature 12-residue CLE peptide of Arabidopsis, the same from CLE41 and CLE44; The same peptide is also encoded by CLE44; also called TDIF; source: synthetic peptide (Peptide Specialty Laboratories, Heidelberg)
Kd [5]: 12.2 nM

YRRVRRGSDPIHN [N-terminally tyrosine-modified CLE45 peptide (Y-CLE45)]
Kd [4]: 12.7 µM

B3: CLE45 peptide (peptide)
peptide: RRVRRGSDPIHN
notes: CLE45, mature 12-residue CLE peptide of Arabidopsis; also called synthetic CLE45 peptide; source: synthetic peptide (Peptide Specialty Laboratories, Heidelberg)
Kd [3]: ~0.12 µM | stoichiometry N [3]: 1 | fold weaker than with the wild-type LRR domain [6]: ~8 fold | Kd [7]: 1110 nM

From publication PMC5538625, “Perception of root‐active CLE peptides requires CORYNE function in the phloem vasculature” (EMBO Reports, 2017)
